From ChEMBL document CHEMBL2417377, “Hit-to-lead optimization and kinase selectivity of imidazo[1,2-a]quinoxalin-4-amine derived JNK1 inhibitors” (Bioorg Med Chem Lett, 2013) come the findings set out here.

Holding throughout (conditions): PC-3
Experiment [1] concerns the target Cyclin-dependent kinase 10 (Homo sapiens) (UniProt Q15131). As to the kind of experiment: Inhibition of CDK10 in human PC3 cell lysates at 10 uM using desthiobiotin-tagged ATP probe AX9989 followed by trypsinization by LC/MS analysis.
Experiment [2] deals with T1, Serine/threonine-protein kinase TAO3 (Homo sapiens) (UniProt Q9H2K8).
T1 sequence (whole entry): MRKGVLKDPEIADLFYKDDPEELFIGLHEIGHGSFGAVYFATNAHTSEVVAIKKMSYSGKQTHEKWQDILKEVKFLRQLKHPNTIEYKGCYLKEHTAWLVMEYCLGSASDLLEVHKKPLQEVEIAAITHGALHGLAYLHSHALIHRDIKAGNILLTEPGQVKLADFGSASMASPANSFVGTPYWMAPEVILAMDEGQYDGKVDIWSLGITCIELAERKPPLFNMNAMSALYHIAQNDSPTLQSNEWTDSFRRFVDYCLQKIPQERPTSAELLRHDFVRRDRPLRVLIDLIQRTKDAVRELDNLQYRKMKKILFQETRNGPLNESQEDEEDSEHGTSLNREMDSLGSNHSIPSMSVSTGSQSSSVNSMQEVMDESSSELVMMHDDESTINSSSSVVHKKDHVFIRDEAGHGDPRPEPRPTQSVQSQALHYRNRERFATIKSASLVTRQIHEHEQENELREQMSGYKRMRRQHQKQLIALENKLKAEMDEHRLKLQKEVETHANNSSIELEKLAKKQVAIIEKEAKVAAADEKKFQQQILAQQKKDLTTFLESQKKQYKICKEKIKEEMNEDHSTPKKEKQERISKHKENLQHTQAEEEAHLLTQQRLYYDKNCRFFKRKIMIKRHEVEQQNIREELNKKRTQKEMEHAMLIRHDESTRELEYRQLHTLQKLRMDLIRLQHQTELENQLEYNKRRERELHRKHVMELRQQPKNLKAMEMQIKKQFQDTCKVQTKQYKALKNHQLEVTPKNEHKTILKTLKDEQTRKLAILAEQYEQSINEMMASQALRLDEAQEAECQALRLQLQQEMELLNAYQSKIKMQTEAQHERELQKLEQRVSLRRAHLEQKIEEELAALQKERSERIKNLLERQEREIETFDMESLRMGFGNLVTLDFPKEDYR
Kind of experiment: Inhibition of TAO3 in human PC3 cell lysates at 10 uM using desthiobiotin-tagged ATP probe AX9989 followed by trypsinization by LC/MS analysis.

Experiment [3] concerns the target Serine/threonine-protein kinase WNK2 (Homo sapiens) (UniProt Q9Y3S1). As to the kind of experiment: Inhibition of Wnk2 in human PC3 cell lysates at 10 uM using desthiobiotin-tagged ATP probe AX9989 followed by trypsinization by LC/MS analysis.
The target in experiment [4] is Tyrosine-protein kinase Yes (Homo sapiens) (UniProt P07947). Kind of experiment: Inhibition of YES in human PC3 cell lysates at 10 uM using desthiobiotin-tagged ATP probe AX9989 followed by trypsinization by LC/MS analysis.
Experiment [5] concerns the target IKK epsilon/TBK1 (Homo sapiens) (UniProt Q14164+Q9UHD2). Kind of experiment: Inhibition of IKKepsilon/TBK1 in human PC3 cell lysates at 10 uM using desthiobiotin-tagged ATP probe AX9989 followed by trypsinization by LC/MS analysis. Type of experiment: protein-complex assay.
The target in experiment [6] is Cyclin-dependent kinase 5 (Homo sapiens) (UniProt Q00535). As to the kind of experiment: Inhibition of CDK5 in human PC3 cell lysates at 10 uM using desthiobiotin-tagged ATP probe AX9989 followed by trypsinization by LC/MS analysis.
Experiment [7] addresses DNA-dependent protein kinase catalytic subunit (Homo sapiens) (UniProt P78527). Kind of experiment: Inhibition of DNAPK in human PC3 cell lysates at 10 uM using desthiobiotin-tagged ATP probe AX9989 followed by trypsinization by LC/MS analysis.
Experiment [8] concerns the target Serine/threonine-protein kinase ATR (Homo sapiens) (UniProt Q13535). As to the kind of experiment: Inhibition of ATR in human PC3 cell lysates at 10 uM using desthiobiotin-tagged ATP probe AX9989 followed by trypsinization by LC/MS analysis.
For experiment [9], the target named is Serine/threonine-protein kinase WNK1 (Homo sapiens) (UniProt Q9H4A3). Kind of experiment: Inhibition of Wnk1 in human PC3 cell lysates at 10 uM using desthiobiotin-tagged ATP probe AX9989 followed by trypsinization by LC/MS analysis.
Experiment [10] deals with Ribosomal protein S6 kinase beta-1 (Homo sapiens) (UniProt P23443). Kind of experiment: Inhibition of p70S6K in human PC3 cell lysates at 10 uM using desthiobiotin-tagged ATP probe AX9989 followed by trypsinization by LC/MS analysis.
Experiment [11] concerns the target T2, Eukaryotic elongation factor 2 kinase (Homo sapiens) (UniProt O00418).
T2 sequence (whole entry): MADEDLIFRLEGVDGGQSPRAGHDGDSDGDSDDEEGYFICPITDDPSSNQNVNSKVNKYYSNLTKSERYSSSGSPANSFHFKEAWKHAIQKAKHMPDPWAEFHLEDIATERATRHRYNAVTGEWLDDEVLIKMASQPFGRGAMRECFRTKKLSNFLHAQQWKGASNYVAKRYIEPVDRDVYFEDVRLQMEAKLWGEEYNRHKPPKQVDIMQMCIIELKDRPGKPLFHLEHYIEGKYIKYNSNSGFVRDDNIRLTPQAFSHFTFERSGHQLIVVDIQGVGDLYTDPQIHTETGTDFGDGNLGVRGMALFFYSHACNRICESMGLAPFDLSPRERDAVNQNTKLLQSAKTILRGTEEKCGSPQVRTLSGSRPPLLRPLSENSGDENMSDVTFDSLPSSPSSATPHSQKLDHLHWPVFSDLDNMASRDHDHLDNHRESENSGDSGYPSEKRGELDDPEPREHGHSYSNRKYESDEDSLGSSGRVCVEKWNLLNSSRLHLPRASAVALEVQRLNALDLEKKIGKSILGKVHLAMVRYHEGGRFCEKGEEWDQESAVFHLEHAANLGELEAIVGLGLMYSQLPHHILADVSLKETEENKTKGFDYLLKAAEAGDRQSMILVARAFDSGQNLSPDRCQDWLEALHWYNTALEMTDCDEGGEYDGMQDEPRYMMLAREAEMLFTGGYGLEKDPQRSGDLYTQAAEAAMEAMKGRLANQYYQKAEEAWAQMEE
As to the kind of experiment: Inhibition of eEF2K in human PC3 cell lysates at 10 uM using desthiobiotin-tagged ATP probe AX9989 followed by trypsinization by LC/MS analysis.

For experiment [12], the target named is Calcium/calmodulin-dependent protein kinase type II subunit gamma (Homo sapiens) (UniProt Q13555). Kind of experiment: Inhibition of CaMK2gamma in human PC3 cell lysates at 10 uM using desthiobiotin-tagged ATP probe AX9989 followed by trypsinization by LC/MS analysis.
Experiment [13] addresses Casein kinase II subunit alpha' (Homo sapiens) (UniProt P19784). Kind of experiment: Inhibition of CK2alpha2 in human PC3 cell lysates at 10 uM using desthiobiotin-tagged ATP probe AX9989 followed by trypsinization by LC/MS analysis.
Experiment [14] concerns the target Serine/threonine-protein kinase 26 (Homo sapiens) (UniProt Q9P289). Kind of experiment: Inhibition of MST4 in human PC3 cell lysates at 10 uM using desthiobiotin-tagged ATP probe AX9989 followed by trypsinization by LC/MS analysis.

Molecules are shown by their SMILES. Some results are limits rather than exact numbers.

Sequence of DNA-dependent protein kinase catalytic subunit (Homo sapiens) (P78527 whole entry): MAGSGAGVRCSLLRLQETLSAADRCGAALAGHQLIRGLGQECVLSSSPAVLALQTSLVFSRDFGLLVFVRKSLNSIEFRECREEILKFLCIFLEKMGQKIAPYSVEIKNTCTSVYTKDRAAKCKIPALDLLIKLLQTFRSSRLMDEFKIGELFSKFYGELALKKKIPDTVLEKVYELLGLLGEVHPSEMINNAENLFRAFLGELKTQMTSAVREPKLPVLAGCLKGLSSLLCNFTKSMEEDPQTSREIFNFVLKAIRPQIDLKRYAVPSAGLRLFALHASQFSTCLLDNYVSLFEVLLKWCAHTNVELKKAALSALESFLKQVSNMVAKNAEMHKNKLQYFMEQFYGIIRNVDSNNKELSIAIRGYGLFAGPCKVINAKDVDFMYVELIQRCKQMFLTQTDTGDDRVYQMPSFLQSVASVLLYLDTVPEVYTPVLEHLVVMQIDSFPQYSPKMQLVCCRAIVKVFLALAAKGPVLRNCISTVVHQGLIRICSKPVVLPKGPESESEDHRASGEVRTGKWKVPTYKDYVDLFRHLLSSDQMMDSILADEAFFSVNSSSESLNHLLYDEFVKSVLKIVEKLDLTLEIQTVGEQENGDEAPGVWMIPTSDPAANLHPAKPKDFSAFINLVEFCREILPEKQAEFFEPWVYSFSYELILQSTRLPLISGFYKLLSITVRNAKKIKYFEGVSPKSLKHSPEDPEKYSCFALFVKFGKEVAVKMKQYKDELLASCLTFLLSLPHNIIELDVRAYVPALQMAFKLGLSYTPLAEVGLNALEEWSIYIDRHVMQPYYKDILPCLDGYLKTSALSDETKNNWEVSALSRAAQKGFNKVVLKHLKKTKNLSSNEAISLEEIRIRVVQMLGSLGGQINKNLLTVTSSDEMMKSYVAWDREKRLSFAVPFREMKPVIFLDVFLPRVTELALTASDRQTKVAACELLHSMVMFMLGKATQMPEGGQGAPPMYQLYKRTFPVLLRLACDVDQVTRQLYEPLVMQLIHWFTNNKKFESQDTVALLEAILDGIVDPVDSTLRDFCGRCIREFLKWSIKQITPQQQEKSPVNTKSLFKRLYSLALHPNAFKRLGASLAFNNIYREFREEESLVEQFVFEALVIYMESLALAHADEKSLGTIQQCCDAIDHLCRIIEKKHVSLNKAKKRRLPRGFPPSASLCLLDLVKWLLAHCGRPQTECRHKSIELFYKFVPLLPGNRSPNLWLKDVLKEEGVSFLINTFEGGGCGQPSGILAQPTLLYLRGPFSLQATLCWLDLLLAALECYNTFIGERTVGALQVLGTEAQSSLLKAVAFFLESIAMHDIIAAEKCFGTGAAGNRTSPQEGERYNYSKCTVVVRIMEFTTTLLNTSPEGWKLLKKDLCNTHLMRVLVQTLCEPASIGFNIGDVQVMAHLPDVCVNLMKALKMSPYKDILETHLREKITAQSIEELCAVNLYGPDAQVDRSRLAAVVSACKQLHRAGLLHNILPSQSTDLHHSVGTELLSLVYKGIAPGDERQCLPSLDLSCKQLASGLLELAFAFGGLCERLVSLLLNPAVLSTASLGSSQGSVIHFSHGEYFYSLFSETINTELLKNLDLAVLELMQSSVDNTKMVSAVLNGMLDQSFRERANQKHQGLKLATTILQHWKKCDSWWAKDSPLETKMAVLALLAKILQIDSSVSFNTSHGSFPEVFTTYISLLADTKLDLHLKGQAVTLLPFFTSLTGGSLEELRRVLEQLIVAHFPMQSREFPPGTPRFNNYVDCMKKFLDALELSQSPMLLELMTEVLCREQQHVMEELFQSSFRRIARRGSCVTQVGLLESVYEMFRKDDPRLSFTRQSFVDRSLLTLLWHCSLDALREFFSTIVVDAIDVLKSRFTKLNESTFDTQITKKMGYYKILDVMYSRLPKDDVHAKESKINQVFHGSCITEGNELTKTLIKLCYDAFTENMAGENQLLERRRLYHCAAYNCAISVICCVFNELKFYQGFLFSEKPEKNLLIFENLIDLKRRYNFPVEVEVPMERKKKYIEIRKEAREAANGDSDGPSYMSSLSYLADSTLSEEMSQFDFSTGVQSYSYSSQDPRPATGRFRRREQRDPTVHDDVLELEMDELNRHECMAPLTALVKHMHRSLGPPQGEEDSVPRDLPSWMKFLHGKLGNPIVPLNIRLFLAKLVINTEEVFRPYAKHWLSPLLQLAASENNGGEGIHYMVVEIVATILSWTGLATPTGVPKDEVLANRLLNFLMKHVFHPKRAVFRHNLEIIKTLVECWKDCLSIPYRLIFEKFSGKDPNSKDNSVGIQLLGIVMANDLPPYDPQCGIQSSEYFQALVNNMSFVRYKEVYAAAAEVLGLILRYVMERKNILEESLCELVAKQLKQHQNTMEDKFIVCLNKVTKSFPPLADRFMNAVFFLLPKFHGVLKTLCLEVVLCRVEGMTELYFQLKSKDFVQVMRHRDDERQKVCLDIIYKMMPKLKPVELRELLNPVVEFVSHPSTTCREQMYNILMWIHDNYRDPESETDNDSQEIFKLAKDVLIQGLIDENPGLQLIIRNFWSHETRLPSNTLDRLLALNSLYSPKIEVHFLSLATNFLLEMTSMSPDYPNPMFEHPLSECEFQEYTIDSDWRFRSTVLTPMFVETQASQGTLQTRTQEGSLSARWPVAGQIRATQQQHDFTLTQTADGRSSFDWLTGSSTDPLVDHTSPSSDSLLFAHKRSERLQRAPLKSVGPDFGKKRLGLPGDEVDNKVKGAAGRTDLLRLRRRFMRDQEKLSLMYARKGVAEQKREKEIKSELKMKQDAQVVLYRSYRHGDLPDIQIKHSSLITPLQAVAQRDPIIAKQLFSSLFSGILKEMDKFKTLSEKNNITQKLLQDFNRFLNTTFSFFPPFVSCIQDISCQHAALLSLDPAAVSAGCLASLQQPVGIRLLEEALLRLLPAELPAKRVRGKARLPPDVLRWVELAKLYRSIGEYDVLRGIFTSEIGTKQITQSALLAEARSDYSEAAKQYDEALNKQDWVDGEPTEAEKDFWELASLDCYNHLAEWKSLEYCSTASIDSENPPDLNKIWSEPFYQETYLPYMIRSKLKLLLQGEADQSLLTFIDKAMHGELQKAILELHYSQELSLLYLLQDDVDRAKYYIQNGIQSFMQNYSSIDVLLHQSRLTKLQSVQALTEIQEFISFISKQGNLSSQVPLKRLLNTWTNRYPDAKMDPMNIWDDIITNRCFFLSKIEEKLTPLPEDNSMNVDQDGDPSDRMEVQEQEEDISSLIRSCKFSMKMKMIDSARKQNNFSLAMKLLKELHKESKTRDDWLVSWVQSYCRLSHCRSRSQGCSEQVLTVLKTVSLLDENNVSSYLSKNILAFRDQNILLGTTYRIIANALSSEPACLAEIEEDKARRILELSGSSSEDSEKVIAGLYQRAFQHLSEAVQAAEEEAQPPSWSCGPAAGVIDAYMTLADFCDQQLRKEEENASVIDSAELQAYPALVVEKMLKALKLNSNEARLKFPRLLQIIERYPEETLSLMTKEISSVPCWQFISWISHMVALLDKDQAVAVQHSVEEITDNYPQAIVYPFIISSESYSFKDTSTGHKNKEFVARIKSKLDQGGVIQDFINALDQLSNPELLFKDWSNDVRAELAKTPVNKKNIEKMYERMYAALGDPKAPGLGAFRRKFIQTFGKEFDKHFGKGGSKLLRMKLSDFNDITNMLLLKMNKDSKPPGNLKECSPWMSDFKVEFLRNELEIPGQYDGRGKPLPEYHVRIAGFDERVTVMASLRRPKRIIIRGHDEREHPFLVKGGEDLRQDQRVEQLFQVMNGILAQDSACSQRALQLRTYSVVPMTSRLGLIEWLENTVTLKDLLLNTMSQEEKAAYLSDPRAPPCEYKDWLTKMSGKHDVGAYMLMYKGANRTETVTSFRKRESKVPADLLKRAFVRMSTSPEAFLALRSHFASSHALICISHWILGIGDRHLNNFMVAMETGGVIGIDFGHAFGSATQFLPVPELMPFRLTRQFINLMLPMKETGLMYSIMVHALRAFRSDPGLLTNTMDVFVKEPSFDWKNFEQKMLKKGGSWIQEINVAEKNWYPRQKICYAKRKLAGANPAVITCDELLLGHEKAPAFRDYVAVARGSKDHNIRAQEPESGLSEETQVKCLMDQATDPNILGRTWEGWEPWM
Sequence of Serine/threonine-protein kinase 26 (Homo sapiens) (Q9P289 2-416 limits assumed): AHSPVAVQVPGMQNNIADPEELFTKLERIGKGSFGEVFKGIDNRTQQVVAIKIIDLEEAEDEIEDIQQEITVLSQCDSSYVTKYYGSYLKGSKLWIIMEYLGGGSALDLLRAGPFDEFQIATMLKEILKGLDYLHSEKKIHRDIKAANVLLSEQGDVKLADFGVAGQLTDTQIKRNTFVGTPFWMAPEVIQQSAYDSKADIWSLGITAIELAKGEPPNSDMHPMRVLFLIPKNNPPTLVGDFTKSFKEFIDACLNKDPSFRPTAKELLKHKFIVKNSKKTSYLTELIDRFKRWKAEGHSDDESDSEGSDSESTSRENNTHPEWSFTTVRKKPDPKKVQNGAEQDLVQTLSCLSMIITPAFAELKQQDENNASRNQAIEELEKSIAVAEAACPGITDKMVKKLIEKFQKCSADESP
Sequence of Cyclin-dependent kinase 5 (Homo sapiens) (Q00535 whole entry, looked up): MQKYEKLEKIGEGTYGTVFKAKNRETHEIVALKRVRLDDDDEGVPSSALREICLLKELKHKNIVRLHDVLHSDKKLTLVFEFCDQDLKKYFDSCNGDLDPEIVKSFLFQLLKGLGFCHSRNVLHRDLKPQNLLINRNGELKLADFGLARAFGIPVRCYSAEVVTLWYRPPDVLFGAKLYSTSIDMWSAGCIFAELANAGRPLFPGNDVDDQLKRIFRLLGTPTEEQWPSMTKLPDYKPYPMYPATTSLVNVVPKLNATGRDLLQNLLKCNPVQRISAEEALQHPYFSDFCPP

`CC[C@@H](NC(=O)c1ccc2nc(N[C@H]3CC[C@H](O)CC3)c3nccn3c2c1)c1ccccc1`: the inhibition in experiment [1], in experiment [2], in experiment [3], in experiment [4], in [5] and in experiment [6] was < 35% in each case. Further, the inhibition was < 35% in [7]; < 35% in [8]; < 35% in [9]; < 35% in experiment [10]; < 35% in [11]; 48.7% in experiment [12]. For the same compound, the inhibition in experiment [13] and in experiment [14] was < 35% each time.

For `O=C(N[C@H](CO)c1ccccc1)c1ccc2nc(N[C@H]3CC[C@H](O)CC3)c3nccn3c2c1`, the inhibition in [1] is 46.6%; in experiment [2], < 35%; in experiment [3] it was < 35%; in [4], < 35%; in [5], < 35%; in experiment [6] it was < 35%. For the same compound, the inhibition in experiment [7], in experiment [8], in experiment [9], in experiment [10], in experiment [11] and in experiment [12] was < 35% in each case. The inhibition in experiment [13] and in experiment [14] was < 35% in each case.

As for `O=C(NC1(c2ccccc2)CCC1)c1ccc2nc(N[C@H]3CC[C@H](O)CC3)c3nccn3c2c1`, the inhibition in experiment [1] is 59.1%; in [2] it was < 35%; in experiment [3], < 35%; in experiment [4] it was < 35%; in experiment [5], < 35%; in experiment [6], < 35%. For the same compound, the inhibition in experiment [7], in [8], in [9], in [10], in experiment [11] and in [12] was < 35% throughout. In addition, the inhibition in experiment [13] and in experiment [14] was < 35% each time.

In the case of `CCC[C@@H](NC(=O)c1ccc2nc(N[C@H]3CC[C@H](O)CC3)c3nccn3c2c1)c1ccccc1`, the inhibition in experiment [1], in [2], in experiment [3], in experiment [4], in experiment [5] and in experiment [6] was < 35% in each case. Also, the inhibition in experiment [7], in experiment [8], in [9], in experiment [10], in experiment [11] and in experiment [12] was < 35% each time. For the same compound, the inhibition in experiment [13] and in [14] was < 35% throughout.

Take `CC(C)(NC(=O)c1ccc2nc(N[C@H]3CC[C@H](O)CC3)c3nccn3c2c1)c1ccccc1`: the inhibition in experiment [1], in [2], in experiment [3], in experiment [4], in experiment [5] and in [6] was < 35% in each case. Besides, the inhibition in experiment [7], in [8], in experiment [9], in [10], in experiment [11] and in experiment [12] was < 35% throughout. Also, the inhibition in experiment [13] and in experiment [14] was < 35% throughout.

Regarding `O=C(O)c1ccc2nc(N[C@H]3CC[C@H](O)CC3)c3nccn3c2c1`, the inhibition is 91.3% in [1]; < 35% in experiment [2]; < 35% in [3]; < 35% in experiment [4]; < 35% in [5]; < 35% in [6]. Moreover, the inhibition in experiment [7], in [8], in experiment [9], in experiment [10], in experiment [11] and in experiment [12] was < 35% each time. Further, the inhibition in experiment [13] was 40.6%; in experiment [14], < 35%.

Consider `O=C(NC1(c2ccccc2)CC1)c1ccc2nc(N[C@H]3CC[C@H](O)CC3)c3nccn3c2c1`, for which the inhibition in experiment [1], in experiment [2], in experiment [3], in [4], in experiment [5] and in experiment [6] was < 35% each time. Moreover, the inhibition in experiment [7], in experiment [8], in [9], in experiment [10], in experiment [11] and in experiment [12] was < 35% throughout. The inhibition in experiment [13] and in experiment [14] was < 35% in each case.

In the case of `NC(=O)c1ccc2nc(N[C@H]3CC[C@H](O)CC3)c3nccn3c2c1`, the inhibition in [1] is 90.4%; in experiment [2] it was < 35%; in experiment [3], < 35%; in [4], < 35%; in experiment [5] it was < 35%; in [6], < 35%. Further, the inhibition in experiment [7], in [8], in experiment [9], in experiment [10], in experiment [11] and in experiment [12] was < 35% in each case. In addition, the inhibition in experiment [13] and in [14] was < 35% each time.

A word on the inhibition: it is the drop in the measured response relative to a control, in per cent.
